Data set [1] concerns NAMPT. Also noted: method as in PMID 30992165. The settings on record: cited from earlier work.
In data set [2] the test system is DU145. Details: method as in PMID 30992165. The conditions noted are these: cited from earlier work.
The test system of data set [3] is Hela. Details: method as in PMID 30992165. The conditions noted are these: cited from earlier work.
Data set [4] deals with H1975. Also noted: method as in PMID 30992165. The settings on record: cited from earlier work.
Data set [5] concerns PC-3 cells. Also noted: method as in PMID 28872607. The settings on record: read-out: IC50 against PC-3 cells; cited from earlier work.
The test system of data set [6] is HCT-116. Details: method as in PMID 31181480. The settings on record: read-out: IC50 against HCT-116; cited from earlier work.
Data set [7] has as its system RKO. Also noted: method as in PMID 31181480. The conditions noted are these: read-out: IC50 against RKO; cited from earlier work.
Data set [8] concerns A2780. Details: method as in PMID 31181480. The settings on record: read-out: IC50 against A2780; cited from earlier work.
The subject of data set [9] is Hela. Also noted: method as in PMID 31181480. The settings on record: read-out: IC50 against Hela; cited from earlier work.
In data set [10] the target is T1, MAO-A (Homo sapiens, UniProt P21397).
T1 construct: purchased Promega
T1 sequence (P21397 1-527): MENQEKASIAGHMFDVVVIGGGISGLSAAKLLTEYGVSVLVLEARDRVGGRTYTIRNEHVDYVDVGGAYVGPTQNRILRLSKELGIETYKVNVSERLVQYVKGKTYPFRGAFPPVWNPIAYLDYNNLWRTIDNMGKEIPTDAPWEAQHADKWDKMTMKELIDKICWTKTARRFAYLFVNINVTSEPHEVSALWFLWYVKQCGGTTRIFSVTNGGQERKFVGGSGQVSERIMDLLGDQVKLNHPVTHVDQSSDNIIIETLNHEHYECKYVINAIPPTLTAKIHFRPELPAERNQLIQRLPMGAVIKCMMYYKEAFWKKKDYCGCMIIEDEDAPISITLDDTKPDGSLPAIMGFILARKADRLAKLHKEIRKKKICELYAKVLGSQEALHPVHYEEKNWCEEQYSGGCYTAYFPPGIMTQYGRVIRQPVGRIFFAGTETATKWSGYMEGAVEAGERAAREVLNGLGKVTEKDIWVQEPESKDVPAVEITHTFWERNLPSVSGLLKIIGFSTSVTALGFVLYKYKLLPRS
The data set is described as follows: MAO-A/B biochemical kit, MAO-A.
From the text: (§1) LSD1 inhibitor screening assay kit was purchased to evaluate for the enzyme inhibition activity of all synthetic compounds (Cayman Chemical, Fort Annapolis, MI). The MAO-A/B biochemical kit was purchased to explore the inhibitory activity against MAO-A and MAO-B (Promega, Madison, WI). […] The signal of each well was read by a GloMax Explorer (Beijing Yuanpinghao Biotechnology Co., Ltd, Beijing, China).

In data set [11] the target is T2, MAO-B (Homo sapiens, UniProt P27338).
T2 construct: purchased Promega
T2 sequence (P27338 1-520): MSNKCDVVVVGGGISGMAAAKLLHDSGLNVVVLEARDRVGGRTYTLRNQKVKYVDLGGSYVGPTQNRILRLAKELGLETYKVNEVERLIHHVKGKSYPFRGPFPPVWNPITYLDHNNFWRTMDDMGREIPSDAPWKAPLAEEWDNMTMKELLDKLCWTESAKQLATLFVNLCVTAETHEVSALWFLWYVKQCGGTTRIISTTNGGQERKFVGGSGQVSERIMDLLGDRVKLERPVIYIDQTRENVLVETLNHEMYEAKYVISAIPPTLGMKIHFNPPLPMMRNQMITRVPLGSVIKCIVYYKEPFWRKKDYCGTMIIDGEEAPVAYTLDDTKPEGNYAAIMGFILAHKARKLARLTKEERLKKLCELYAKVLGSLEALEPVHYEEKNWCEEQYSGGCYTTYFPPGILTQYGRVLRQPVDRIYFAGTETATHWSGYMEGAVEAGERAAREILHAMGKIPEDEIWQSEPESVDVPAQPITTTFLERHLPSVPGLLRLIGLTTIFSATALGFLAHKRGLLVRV
In words: MAO-A/B biochemical kit, MAO-B.
From the text: as §1

Data set [12] deals with LSD1 (Homo sapiens, UniProt O60341). In words: LSD1 inhibitor screening assay kit.
From the text: as §1

SMILES strings stand for the structures. Read-outs that look alike come from different tables or passages of the source.

With `Cc1ccccc1NS(=O)(=O)c1cccc(CCCCCCNC(=O)/C=C/c2cccnc2)c1` [Compound 4], the IC50 – broadly, the point on the concentration scale where inhibition reaches its midpoint – in [1] was 0.00508 µM. For the same molecule, in data set [2], the “antiproliferative activity against DU145 cells” value is “single-digit nanomolar”. The “antiproliferative activity against Hela cells” value in data set [3] is listed as “single-digit nanomolar”. In addition, in [4], the “antiproliferative activity against H1975 cells” value was “single-digit nanomolar”.
As for `Cc1ccc(S(=O)(=O)NCc2cn(Cc3cccc(Oc4ccccc4)c3)nn2)cc1` [Compound 5], the IC50 in data set [5] is 4.08 µM.
For `COc1cccc(Nc2ccnc3cc(OCCCc4ccccc4)ccc23)c1` [Compound 8], the IC50 in [6] was 2.56 µM; in data set [7] it was 3.67 µM; in data set [8], 3.46 µM; in [9] it was 2.71 µM.
On to `COc1ccc(S(=O)(=O)Nc2cccc3cccnc23)cc1OC` [Compound J1, 3,4-Dimethoxy-N-(quinolin-8-yl)benzenesulphonamide], for which the IC50 was over 120 µM in data set [10], over 120 µM in data set [11] and 33.8 ± 2.04 µM in data set [12].
For `COc1ccc(S(=O)(=O)Nc2cccc3cccnc23)cc1` [Compound J2, 4-Methoxy-N-(quinolin-8-yl)benzenesulphonamide], the IC50 is over 120 µM in data set [10], over 120 µM in data set [11] and 45.6 ± 1.12 µM in data set [12].
With `CC(C)(C)c1ccc(S(=O)(=O)Nc2cccc3cccnc23)cc1` [Compound J3, 4-(Tert-butyl)-N-(quinolin-8-yl)benzenesulphonamide], the IC50 was over 120 µM in [10], over 120 µM in [11] and 61.9 ± 2.46 µM in data set [12].
On to `O=S(=O)(Nc1cccc2cccnc12)c1ccccc1` [Compound J4, N-(quinolin-8-yl)benzenesulphonamide], for which the values for the IC50 in [10], in [11] and in [12] were over 120 µM, over 120 µM and 82.5 ± 3.38 µM, respectively.
On to `Cc1ccc(S(=O)(=O)Nc2cccc3cccnc23)cc1` [Compound J5, 4-Methyl-N-(quinolin-8-yl)benzenesulphonamide], for which the IC50 in data set [10] was over 120 µM; in data set [11], over 120 µM; in [12], 74.5 ± 2.67 µM.
For the molecule `O=S(=O)(Nc1cccc2cccnc12)c1ccc(Br)cc1` [Compound J6, 4-Bromo-N-(quinolin-8-yl)benzenesulphonamide], the melting point (as a rule, the temperature of the solid-liquid transition) lay within 192 to 194 °C. This molecule came in with an IC50 in data set [10] of over 120 µM. In data set [11], the IC50 is over 120 µM. The same molecule came in with an IC50 in data set [12] of 61.8 ± 5.64 µM.
For the molecule `COc1cc(NS(=O)(=O)c2cccc3cccnc23)cc(OC)c1OC` [Compound J7, N-(3,4,5-trimethoxyphenyl)quinoline-8-sulphonamide], the IC50 in data set [10] was over 120 µM; in data set [11], over 120 µM; in [12] it was 11.6 ± 1.92 µM.
For `COc1cc(N(CCBr)S(=O)(=O)c2cccc3cccnc23)cc(OC)c1OC` [Compound K1, N-(2-bromoethyl)-N-(3,4,5-trimethoxyphenyl)quinoline-8-sulphonamide], the melting point is 158 to 160 °C. In [10], this molecule showed an IC50 of over 120 µM. Moreover, in [11], the IC50 was over 120 µM. Also, in data set [12], the IC50 was determined as 14.8 ± 2.04 µM.
In the case of `COc1cc(N(CCCBr)S(=O)(=O)c2cccc3cccnc23)cc(OC)c1OC` [Compound K2, N-(3-bromopropyl)-N-(3,4,5-trimethoxyphenyl)quinoline-8-sulphonamide], the IC50 in data set [10] is over 120 µM; in data set [11], over 120 µM; in data set [12] it was 9.63 ± 1.26 µM.
The molecule `COc1cc(N(CCCCBr)S(=O)(=O)c2cccc3cccnc23)cc(OC)c1OC` [Compound K3, N-(4-bromobutyl)-N-(3,4,5-trimethoxyphenyl)quinoline-8-sulphonamide] returned a melting point of 103 to 104 °C. This molecule yielded an IC50 in data set [10] of over 120 µM. In data set [11], this molecule gave an IC50 of over 120 µM. For the same molecule, the IC50 in [12] was 6.32 ± 0.77 µM.
For the molecule `COc1cc(N(CCSC(=S)N2CCN(C(=O)OC(C)(C)C)CC2)S(=O)(=O)c2cccc3cccnc23)cc(OC)c1OC` [Compound L1, Tert-butyl-4-(((2-(N-(3,4,5-trimethoxyphenyl)quinoline-8-sulfonamido)ethyl)thio)carbonothioyl)piperazine-1-carboxylate], the melting point fell in the range of 121 to 123 °C. Besides, the IC50 in data set [10] is over 120 µM. This molecule showed an IC50 in data set [11] of over 120 µM. In [12], this molecule had an IC50 of 2.73 ± 0.29 µM.
Molecule `COc1cc(N(CCCSC(=S)N2CCN(C(=O)OC(C)(C)C)CC2)S(=O)(=O)c2cccc3cccnc23)cc(OC)c1OC` [Compound L2, Tert-butyl-4-(((3-(N-(3,4,5-trimethoxyphenyl)quinoline-8-sulfonamido)propyl)thio)carbonothioyl)piperazine-1-carboxylate] came in with a melting point of 130 to 132 °C. The molecule also had an IC50 in data set [10] of over 120 µM. Besides, the IC50 in data set [11] is over 120 µM. The molecule also registered an IC50 in data set [12] of 1.39 ± 0.14 µM.
Take `COc1cc(N(CCSC(=S)N2CCN(CCO)CC2)S(=O)(=O)c2cccc3cccnc23)cc(OC)c1OC` [Compound L3, 2-(N-(3,4,5-trimethoxyphenyl)quinoline-8-sulfonamido)ethyl-4–(2-hydroxyethyl)piperazine-1-carbodithioate]: the values for the IC50 in data set [10], in data set [11] and in data set [12] (read-out: IC50 (μM) LSD1) were over 120 µM, over 120 µM and 1.85 ± 0.07 µM, respectively.
For the molecule `COc1cc(N(CCCSC(=S)N2CCN(CCO)CC2)S(=O)(=O)c2cccc3cccnc23)cc(OC)c1OC` [Compound L4, 3-(N-(3,4,5-trimethoxyphenyl)quinoline-8-sulfonamido)propyl-4–(2-hydroxyethyl)piperazine-1-carbodithioate], the IC50 in data set [10] is over 120 µM; in data set [11], over 120 µM; in data set [12] (read-out: IC50 (μM) LSD1) it was 0.67 ± 0.1 µM.
As to `CCN1CCN(C(=S)SCCCCN(c2cc(OC)c(OC)c(OC)c2)S(=O)(=O)c2cccc3cccnc23)CC1` [Compound L5, 4-(N-(3,4,5-trimethoxyphenyl)quinoline-8-sulfonamido)butyl-4-ethylpiperazine-1-carbodithioate], the IC50 in [10] was over 120 µM; in data set [11], over 120 µM; in data set [12] (read-out: IC50 (μM) LSD1) it was 4.92 ± 0.13 µM. Further, the “LSD1 activity loss, hydroxyethyl group replaced with ethyl group” value in data set [12] (compound L8 versus L5) is “over 80 fold”.
With `COc1cc(N(CCCCSC(=S)N2CCN(C(=O)OC(C)(C)C)CC2)S(=O)(=O)c2cccc3cccnc23)cc(OC)c1OC` [Compound L6, Tert-butyl-4-(((4-(N-(3,4,5-trimethoxyphenyl)quinoline-8-sulfonamido)butyl)thio)carbonothioyl)piperazine-1-carboxylate], the melting point is 98 to 100 °C. Also, the IC50 in data set [10] was over 120 µM. This molecule had an IC50 in data set [11] of over 120 µM. Also, it took 0.23 ± 0.05 µM to reach half-maximal inhibition in data set [12] (IC50).
For the molecule `COc1cc(N(CCCCSC(=S)N2CCN(C)CC2)S(=O)(=O)c2cccc3cccnc23)cc(OC)c1OC` [Compound L7, 4-(N-(3,4,5-trimethoxyphenyl)quinoline-8-sulfonamido)butyl-4-methylpiperazine-1-carbodithioate], the IC50 in [10] was over 120 µM; in data set [11] it was over 120 µM; in [12] (read-out: IC50 (μM) LSD1), 0.73 ± 0.08 µM.
`N[C@H]1CC[C@H](N[C@@H]2C[C@H]2c2ccccc2)CC1` [ORY-1001, reference compound] registered an IC50 in data set [10] of over 120 µM.
